# Measurements: patent publication US11185527B2, “Methods and compositions relating to steroid hormone receptor-dependent cancers” (Wayne State University, priority 2017, dated 2021)
# Several values for one entry are separate records, joined by “and”; a condition that tells them apart may be missing. Equal entries are not always repeated.
# Experiments:
# [1] = system: ARE-dependent promoter activation by AR; assay: Counter screening assay: ARE-luciferase reporter in recombinant HeLa cells expressing AR; format: cell-based, human; conditions: testosterone-treated recombinant HeLa cells
# From the text: FIG. 6B is a schematic diagram of the reporter system for the counter screening assay. Recombinant HeLa cells used in this assay are identical to the primary screening cells except for the absence of Gal4-ELK1 and substitution of the Gal4 elements in the promoter with a canonical ARE. In this case, testosterone causes cytosolic AR to translocate to the nucleus and bind to the ARE in the promoter resulting in activation of the luciferase reporter.
# The cells generated for counter screening, are HeLa cells stably transduced with a lentiviral plasmid construct containing a minimal promoter-luciferase reporter and an upstream androgen response element (ARE) sequence. These HeLa cells were also transduced with a lentiviral expression plasmid encoding the full-length AR. These lentiviral constructs were made as follows. Custom synthesized PCR primers were used to amplify and clone the ARE sequence from a pG5luc plasmid construct containing an ARE sequence element into the pGreenFire1 ™-mCMV-EF1-Neo (Plasmid) at SpeI (upstream) and BamHI (downstream) sites. pG5luc Vector is well known and the complete sequence has NCBI accession #AF264724. The ARE containing pG5luc plasmid is described in detail in Patki et al., 2013, J Biol Chem, 288:11047-11065. The lentiviral vector expressing ARE-luciferase reporter was then packaged in lentivirus and parental HeLa cells were infected as described below under the heading “Lentivirus-mediated-Transduction.” After 72h of infection, 400 ug/mL of Geneticin was added to the culture medium to select for the transduced cells. These cells were then infected with the lentivirus containing the full length AR expression plasmid described above. After 72h of infection, 2 ug/mL of Puromycin was added to the culture medium to select for the transduced cells. Clonal cells harboring both the ARE-promoter-luciferase reporter and also stably expressing AR were then isolated using cloning cylinders as described above. The selected clones were further expanded and then tested for luciferase induction by testosterone. The clone that gave the greatest luciferase signal to noise ratio in response to testosterone treatment was then chosen for use in the counter screening assay for high throughput small molecule screening. All of the plasmid constructs generated above were sequenced to verify DNA sequences before, the constructs were used.
# For high throughput screening, recombinant primary screening cells were first depleted of hormone by growing them for 24h in medium in which the serum used was heat-inactivated and charcoal-stripped. The cells were then plated in 384-well white flat bottom plates (5,000 cells/well) (Corning Product #3570) using a Multidrop (Thermo Fisher Scientific, Waltham, Mass.). […]
# [2] = system: ELK1-dependent promoter activation by AR; assay: Primary screening assay: luciferase reporter in recombinant HeLa cells (Gal4-TATA-Luc, Gal4-ELK1, AR) treated with testosterone; format: cell-based, human; conditions: for inhibition of ELK1-dependent promoter activation by AR (in words): testosterone-treated recombinant HeLa cells, luciferase
# From the text: FIG. 6A is a schematic diagram of the reporter system for the primary screening assay. Recombinant HeLa cells used in this assay harbor the Gal4-TATA-Luc promoter-reporter, and stably express a Gal4-ELK1 fusion protein as well as the androgen receptor (AR). Gal4-ELK1 is bound to the Gal4 elements in the promoter. In the absence of testosterone (small circle), AR is localized in the cytoplasm. When testosterone is present it binds to AR causing AR to translocate to the nucleus where it then binds to Gal4-ELK1 and activates the downstream luciferase reporter.
# HeLa HLR cells obtained from Dr. Johann Hofman (Innsbruck Medical University), which were originally designed to serve as a cell-based assay system to measure modulation of MAPK activity. HeLa HLR cells have a stably integrated minimal promoter-luciferase reporter containing five upstream Gal4 elements (Gal4-TATA-Luc) and also constitutively express a Gal4-ELK1 fusion protein in which the Gal4 DNA binding domain is substituted for the ETS DNA binding domain of ELK1. In order to produce recombinant cell lines for high throughput screening and counter screening of small molecule libraries, HeLa HLR were stably transduced with a vector expressing the full-length AR. A sequence encoding the full length AR (SEQ ID NO:9) was subcloned from the pCMV expression vector (Origene) into the pCDH-CMV-MCS-EF1-Puro cDNA Cloning and Expression Vector (System Biosciences) at NheI (upstream) and BamHI (downstream) sites. The lentiviral vector expressing full length AR was then packaged in lentivirus and the HeLa HLR cells were infected as described below in the sub-section “Lentivirus-mediated-Transduction.” After 72 hours (h) of infection, 2 ug/mL of puromycin was added to the culture medium to select for the transduced cells. The cells were plated at low density for colony formation (20-40 colonies) in a 100 mm dish. Clonal cells were isolated using cloning cylinders from CORNING (Cat. #3166-8). The selected clones were further expanded and then tested for luciferase induction by testosterone. The clone that gave the greatest luciferase signal to noise ratio in response to testosterone treatment was then chosen for use in the primary screening assay for high throughput small molecule screening.
# For high throughput screening, recombinant primary screening cells were first depleted of hormone by growing them for 24h in medium in which the serum used was heat-inactivated and charcoal-stripped. The cells were then plated in 384-well white flat bottom plates (5,000 cells/well) (Corning Product #3570) using a Multidrop (Thermo Fisher Scientific, Waltham, Mass.). The plates were then incubated for 24h prior to adding test compounds. The following day test compounds from the LOPAC, Prestwick, or Maybridge Hitfinder libraries were added precisely in a 0.2 μL volume in the test wells using a Biomek FX liquid handler (Beckman Coutler, Break, Calif.) to achieve final media concentration of 10 μM of each test compound. Using the Multidrop (ThermoLab Systems, Helsinki, Finland), testosterone was added in addition to the test compounds to achieve a final media concentration of 10 nM. As the test compounds were re-constituted from powder stocks using dimethyl sulfoxide (DMSO) as the solvent, the final media concentration of DMSO was 0.4% v/v. For the assay negative control on each plate, one row of wells on each plate contained 10 nM testosterone and 0.4% v/v of DMSO. For the assay positive control on each plate, one row of wells on each plate contained 10 nM testosterone and 10 uM enzalutamide dissolved in DMSO (0.4% v/v of DMSO in the wells). The plates were incubated for 24h at 37° C. in 5% CO2. The medium was then aspirated leaving a residual volume 10 μl using an Elx 405-plate washer (Bio Tek U.S.). Then, 10 uL of the assay reagent Bright-Glo (Promega Corp., Madison Wis.) was added to each well. […]
# AR negative cell lines = assay: Toxicity to AR negative cell lines; conditions: at low doses, concentration range of 1 uM-10 uM
# 22Rv1 cells = assay: Cell monolayer growth assay (MTT); format: cell-based, human; conditions: enzalutamide up to 20 uM
# Experimental: Twenty four hours after plating the 22Rv1 cells, they were treated with the indicated concentrations of KCI807 (FIG. 4C) or with the indicated concentrations of enzalutamide (ENZ) (FIG. 4D).
# Twenty four hours after plating the cells, they were treated with the indicated concentrations of the compound.
# FIG. 16D is a graph showing the effect of 5′-Fluoro-5,3′-Dihydroxyflavone at various concentrations on growth of 22Rv1 cells.
# Cells were trypsinized and 3000-4000 cells/well were seeded in 96-well plates coated with poly-D-lysine. The cells were seeded in phenol red-free medium supplemented with 10% FBS, 100 units/ml penicillin, 100 μg/ml streptomycin, 2 mM L-glutamine mixture and sodium pyruvate (1 mM) for LNCaP cells and phenol red-free medium supplemented with 10% FBS, 100 units/ml penicillin, 100 μg/ml streptomycin and 2 mM L-glutamine mixture for VCaP, 22Rv1, DU145, HeLa, HEK293 and H1650 cells. The cells were grown at 37° C. in 5% CO2. Twenty four hours after seeding in the 96-well plates, the cells were treated with the indicated concentration of KCI807 or DMSO (vehicle). The cells were re-treated on Day 3 by removing half the volume of medium and replacing it with fresh treated medium. Cell viability was determined using the MTT assay from day zero until day five. MTT (10 μL, 5 mg/mL) was added to each well and incubated for 2h at 37° C. The formazan crystal sediments were dissolved in 100 μL of DMSO, and the absorbance at 570 nm was measured using the BioTek Synergy 2 Microplate Reader (BioTek, Winooski, Vt.). The assay was conducted in sextuplicate wells and values were normalized to day zero.
# [3] = Metabolism in pooled human liver microsomes (HLM) with or without NADPH; format: in vitro ADME
# Experimental: BD UltraPool human liver microsomes (HLM) 150 and the NAPDH regenerating system solution A and B were obtained from Corning Inc. Pooled HLM were used to determine percentage of metabolism of 5,3′-Dihydroxyflavone and 5,3-Dihydroxy-4′-methylflavone. The compounds (20 μM) were co-incubated with HLM (0.05 mg/ml) in the presence or absence of NAPDH for 30 minutes in a 37° C. water bath. At the end of the microsome reaction, the reaction was quenched with 1000 μl ethyl acetate. The mixture was vortexed and centrifuged at 13,000 rpm for 15 minutes, the supernatant was then subjected to high-performance liquid chromatography with tandem mass spectrometry ([…]) analysis.
# [4] = HLM 0.05 mg/ml, 30 minutes, 37° C.
compound,measurement,setting,value
"O=c1cc(-c2ccc(O)c(O)c2)oc2cc(O)cc(O)c12 [Hit1, 5,7,3′,4′-tetrahydroxyflavone]",inhibition of ARE-dependent promoter activation by AR (in words),[1],virtual absence of an effect
same,inhibition at 10 µM,"[2]; Homo sapiens, HeLa, compound concentration of 10 μM, read-out: inhibition in the primary screen",80 to 100%
"O=c1cc(-c2cc(O)cc(F)c2)oc2cc(F)cc(O)c12 [5′,7-diflouro-5,3′-dihydroxyflavone]",toxicity to AR negative cell lines,AR negative cell lines,toxic
same,inhibition of ARE-dependent promoter activation by AR (in words),[1],inhibited
same,inhibition of ELK1-dependent promoter activation by AR (in words),[2],inhibited
"COc1c(-c2ccc(O)c(O)c2)oc2cc(O)cc(O)c2c1=O [5,7,3′,4′-tetrahydroxy-3-methoxyflavone]",inhibition of ELK1-dependent promoter activation by AR (in words),[2],lack of inhibition
"O=c1cc(-c2cccc(O)c2)oc2cc(F)cc(O)c12 [7-Fluoro-5,3′-dihydroxyflavone]",inhibition of ARE-dependent promoter activation by AR (in words),[1],inhibited
same,inhibition of ELK1-dependent promoter activation by AR (in words),[2],inhibited
"Cc1ccc(-c2cc(=O)c3c(O)cccc3o2)cc1O [4′-methyl-5,3′-dihydroxyflavone, 5,3′-dihydroxy-4′-methylflavone]",growth inhibition of 22Rv1 cells,22Rv1 cells,retained its ability to inhibit growth
same,"compound concentration after HLM incubation, Control (absence of NADPH), replicate",[3]; [4],1789 nM and 1770 nM and 1757 nM and 1773 nM and 1776 nM and 1782 nM
same,"compound concentration after HLM incubation, NADPH treated, replicate",[3]; [4],1491 nM and 1513 nM and 1639 nM and 1651 nM and 1498 nM and 1501 nM
same,"mean compound concentration, Control (absence of NADPH)",[3]; [4],1774 nM
same,"mean compound concentration, NADPH treated",[3]; [4],1549 nM
same,percentage metabolized (%),"[3]; HLM 0.05 mg/ml, NADPH, 30 minutes, 37° C.",12.7%
same,"reduction of metabolism in human liver microsomes relative to 5,3′-dihydroxyflavone",[3]; methyl group substitution on the 4′ carbon,50%
